Experimental data taken from paper PMC4926125, “Evaluation of the Toxicity and Toxicokinetics of Cereulide from an Emetic Bacillus cereus Strain of Milk Origin” (Toxins, 2016).
Read-outs that look alike come from different tables or passages of the source.

Columns and labels:
[1] = Toxicokinetics of cereulide in rabbits after a single intravenous injection (plasma, UPLC-MS/MS); format: in vivo, New Zealand White rabbits; conditions: for MRT / Tmax: rabbit; for MRT: read-out: MRTlast, mean retention time until the last time point; for Tmax: read-out: Tmax, time to peak concentration
Experimental: A total number of eight rabbits (half female and half male) were used to evaluate the toxicokinetics of cereulide after a single administration of 5 μg cereulide. All plasma samples at different time points were collected, and the concentrations of cereulide were quantified by UPLC-MS/MS assay. The dynamic curve of cereulide in the plasma of rabbits is shown in Figure 3a, and toxicokinetic parameters were calculated using a non-compartmental model as shown in Table 1. […] The concentration of cereulide dropped down until 1 h and rose thereafter. Following a short stationary phase from 4 h to 8 h, the concentration of cereulide decreased gradually. No cereulide could be detected 32 h later. Additionally, no cereulide was detected in the rabbits treated by 0.9% saline-methanol (10:90, v/v) based on our established UPLC-MS/MS method.
(§1) This animal study was approved by the Institutional Animal Care and Use Committee at the China Agricultural University (SYXK (2012-0037), 28 December 2012), and all the operations were conducted according to the biosafety procedures. Eight adult New Zealand White rabbits (four female and four male) with weights of 2.0 ± 0.3 kg were used in this study. A single intravenous dose of 5 μg cereulide dissolved in 0.9% saline-methanol (10:90, v/v; the amount of methanol injected to rabbit was about 1.8 g/kg body weight) was administrated. Two other rabbits (one female and one male) were treated by 0.9% saline-methanol (10:90, v/v) as control. Blood samples were collected after injection at different time points 0, 0.2, 0.5, 1, 2, 3, 4, 5, 6, 8, 10, 12, 16, 20, 24, 28, 32 h. All samples were centrifuged at 4 °C, 2000 g for 10 min. Plasma from each sample was collected and stored at −80 °C.
The plasma samples were thawed to room temperature before analysis. Then 200 μL of each sample was spiked with 10 ng/mL valinomycin (Sigma-Aldrich, St. Louis, MO, USA) as internal standards in a 1.5 mL tube (Axygen, Union City, CA, USA). The extraction steps were as below. First 1 mL acetonitrile (Fisher Scientific, Waltham, PA, USA) was added to each sample and vortexed for 3 min. After centrifugation at 13,000 g for 10 min, the supernatants were transferred into new tubes. The extraction steps were repeated once and the supernatants were combined. The supernatants were evaporated under a flow of nitrogen gas at 50 °C. The dry samples were reconstituted with 500 μL methanol and water with the ratio of 9:1 (v/v), vortexed for 3 min and filtered through 0.22 μm filter membrane (PALL, Port Washington, NY, USA) before UPLC-MS/MS analysis.
The presence of cereulide was confirmed in all extracts and quantified by UPLC-MS/MS as described before. UPLC-MS/MS (Waters, Milford, MA, USA) equipped with a RP C18 column (50 mm × 2.1 mm, 1.7 μm, Acquity UPLC, Milford, MA, USA) was used. A gradient program was applied with the mobile phase consisting of solvent A (0.1% formic acid (Dikma, Lake Forest, CA, USA) in water) and solvent B (0.1% formic acid in acetonitrile) as follows: 98%–10% A (0–1 min), 10%–0% A (1–3 min), 0%–98% A (3–5 min). The flow rate was set at 0.3 mL/min with the injection volume of 10 μL. A positive electrospray ionization (ESI^+) mode was chosen to analyze the transitions of m/z 1170.9 → 1125.9 for cereulide and m/z 1128.8 → 1084.3 for valinomycin, by multiple reaction monitoring (MRM) method. The cone voltages for cereulide and valinomycin were 10 V and 60 V, and collision energy were 20 eV and 37 eV, respectively. All data were acquired and processed by software Masslynx 4.1 (Waters, Milford, MA, USA, 2005). The toxicokinetic parameters of cereulide were analyzed by the commercial pharmacokinetic program Phoenix WinNonlin 5.2.1 (Certara, Princeton, NJ, USA).

[2] = tested on: aspartate aminotransferase (AST) in plasma; assay: Liver damage in rabbits evaluated by plasma AST concentration (indirect EIA); format: in vivo, New Zealand White rabbits; conditions: mean ± SD, n = 8, control range 15.0 to 30.0 ng/mL
Experimental: Liver damage in rabbits triggered by cereulide was evaluated by the concentration of aspartate aminotransferase (AST) in plasma. […] Liver function recovered, with the concentration of AST returning to the normal level 32 h after administration. In addition, the concentrations of AST in female rabbits were higher than those in males (Figure 3c), especially at the time point of 0.5 h (P = 0.0345).
as §1, with “Blood samples were collected after injection at different time points 0, 0.2, 0.5, 1, 2, 3, 4, 5, 6, 8, 10, 12, 16, 20, 24, 28, 32 h. All samples were centrifuged at 4 °C, 2000 g for 10 min. Plasma from each sample was collected and stored at −80 °C.” left out
Plasma samples at time points of 0.5, 6, 12, 24 and 32 h were evaluated concentrations of AST by indirect EIA according to the instruction (Beyotime Biotechnology, Beijing, China). […] Subsequently, the substrate was added with the absorbance at 450 nm.

[3] = still active after heat treatment in food processing and passing through the intestinal tract; cited from earlier work
Excerpt: B. cereus can be found in most common food matrices such as rice, pasta and dairy products, and it represents more than 68.0% of foodborne outbreaks in all food types. There is an increasing occurrence of B. cereus foodborne outbreaks. For example, B. cereus was responsible for 13.4% of bacterial foodborne outbreaks, ranking as the second among the most frequent bacterial causes of foodborne disease in Chinese inland provinces. In fact, the number of B. cereus contaminations is highly underestimated, because foodborne B. cereus disease is mild and self-limiting and is consequently ...

[4] = both sexes, New Zealand White, plasma, iv, 5 ug, single i.v. 5 μg cereulide/rabbit, plasma, UPLC-MS/MS, non-compartmental, n = 8, mean ± SD
[5] = both sexes, New Zealand White, plasma, iv, 5 ug, single i.v. 5 μg cereulide/rabbit, plasma, UPLC-MS/MS, non-compartmental, n = 8, median
[6] = single i.v. 5 μg cereulide/rabbit, plasma, UPLC-MS/MS (LOQ 1.5 ng/mL)
[7] = single i.v. 5 μg cereulide/rabbit, plasma, UPLC-MS/MS, non-compartmental, n = 8, median
[8] = single i.v. 5 μg cereulide/rabbit, plasma, UPLC-MS/MS, non-compartmental, n = 8, range

For `CC(C)C[C@H]1OC(=O)[C@H](C(C)C)NC(=O)[C@H](C(C)C)OC(=O)[C@@H](C)NC(=O)[C@@H](CC(C)C)OC(=O)[C@H](C(C)C)NC(=O)[C@H](C(C)C)OC(=O)[C@@H](C)NC(=O)[C@@H](CC(C)C)OC(=O)[C@H](C(C)C)NC(=O)[C@H](C(C)C)OC(=O)[C@@H](C)NC1=O` [cereulide], the AUC(0-t) ([1]; both sexes, New Zealand White, iv, 5 ug, single i.v. 5 μg cereulide/rabbit, plasma, UPLC-MS/MS, non-compartmental, n = 8, mean ± SD, read-out: AUC, area under the curve for the plasma concentration until the last time point) was 321 ± 240 ng·h/mL, the AUC(0-inf) ([1]; both sexes, New Zealand White, iv, 5 ug, single i.v. 5 μg cereulide/rabbit, plasma, UPLC-MS/MS, non-compartmental, n = 8, mean ± SD, read-out: AUC∞, area under the curve until infinity) was 390 ± 258 ng·h/mL and the clearance ([1]; both sexes, New Zealand White, iv, 5 ug, single i.v. 5 μg cereulide/rabbit, plasma, UPLC-MS/MS, non-compartmental, n = 8, mean ± SD, read-out: Cl, clearance (converted)) was 0.318 mL/min. It also gave a Cmax ([1]; both sexes, New Zealand White, iv, 5 ug, single i.v. 5 μg cereulide/rabbit, plasma, UPLC-MS/MS, non-compartmental, n = 8, mean ± SD, read-out: Cmax, maximum concentration after intravenous administration) of 40.8 ± 21.6 ng/mL, a half-life ([1]; both sexes, New Zealand White, iv, 5 ug, single i.v. 5 μg cereulide/rabbit, plasma, UPLC-MS/MS, non-compartmental, n = 8, mean ± SD, read-out: HL_Lambda_z, elimination half-life (converted)) of 10.8 ± 9.1 h and a Vd ([1]; both sexes, New Zealand White, iv, 5 ug, single i.v. 5 μg cereulide/rabbit, plasma, UPLC-MS/MS, non-compartmental, n = 8, mean ± SD, read-out: Vd, volume of distribution) of 0.32 ± 0.4 L. It also gave an MRT [1, 4] of 9.6 ± 2.9 h, a Tmax [1, 4] of 2.6 ± 3.4 h and an MRT [1, 5] of 10.6 h. For the same compound, the Tmax [1, 5] was 0.2 h, the “AUC, area under the curve for the plasma concentration until the last time point” value ([1]; single i.v. 5 μg cereulide/rabbit (ear vein), plasma 0-32 h, UPLC-MS/MS, non-compartmental model (WinNonlin), n = 8, median) was 309.3 ng·h/mL and the “time after which no cereulide could be detected in plasma” value [1, 6] was 32 h. For the same compound, the “time at which cereulide was detected in plasma after injection” value [1, 6] was no more than 0.2 h, the “Lambda_z, elimination rate constant” value ([1]; single i.v. 5 μg cereulide/rabbit, plasma, UPLC-MS/MS, non-compartmental, n = 8, mean ± SD) was 0.1 ± 0.1 h⁻¹ and the “AUC∞, area under the curve until infinity” value [1, 7] was 330.5 ng·h/mL. The “Cl, clearance” value [1, 7] was 15.5 mL/h, the “Cmax, maximum concentration after intravenous administration” value [1, 7] was 33.8 ng/mL and the “HL_Lambda_z, elimination half-life” value [1, 7] was 6.9 h. The “Lambda_z, elimination rate constant” value [1, 7] was 0.1 h⁻¹, the “Vd, volume of distribution” value [1, 7] was 208.1 mL and the “AUC, area under the curve for the plasma concentration until the last time point” value [1, 8] was 81.2 to 851.1 ng·h/mL. The “AUC∞, area under the curve until infinity” value [1, 8] was 126.0 to 853.9 ng·h/mL, the “Cl, clearance” value [1, 8] was 5.9 to 39.7 mL/h and the “Cmax, maximum concentration after intravenous administration” value [1, 8] was 13.3 to 78.1 ng/mL. The “HL_Lambda_z, elimination half-life” value [1, 8] was 1.9 to 24.5 h, the “Lambda_z, elimination rate constant” value [1, 8] was 0.03 to 0.4 h⁻¹ and the “MRTlast, mean retention time until the last time point” value [1, 8] was 4.5 to 13.4 h. The “Tmax, time to peak concentration” value [1, 8] was 0.2 to 8.0 h, the “Vd, volume of distribution” value [1, 8] was 16.3 to 1254.5 mL and the “AST concentration in plasma” value ([2]; 0.5 h after single i.v. 5 μg cereulide) was 99.1 ± 32.2 ng/mL. For the same compound, the “AST concentration in plasma” value ([2]; 12 h after single i.v. 5 μg cereulide) was 97.3 ± 55.3 ng/mL and the “stability to heat and proteolysis” value [3] was “heat-stable, proteolytically resistant”.
